Where two headings read alike, the source gives them in different places.
Key:
[1] = Mouse tissue staining experiment, fluorescence of extracted organs; settings: normal mouse, organs extracted 4 hours after injection; FIG. 9
Source text: (§1) Each graph represents the fluorescence signal of each organ.

[2] = tested on: A549 cancer cells, which do not express folate receptors, and H522 cancer cells, which express folate receptors; test: Fluorescent contrast observation of cancer cells with and without folate receptor expression; type: cell-based; settings: A549 (no folate receptors) vs H522 (folate receptors); FIG. 5A, 5B
Source text: Accordingly, it was identified that FMK-2 had no cytotoxicity.

[3] = mouse, in vivo
Source text: as §1

Structure (SMILES) | fluorescence signal of each organ [1] | fluorescence expression in cancer cells depending on folate receptor expression [2] | fluorescence signal of each organ [3]
CC1(C)C(/C=C/C2=C(Cl)C(=C/C=C3/N(CCC(=O)O)c4ccc(S(=O)(=O)O)cc4C3(C)C)/CCC2)=[N+](CCC(=O)O)c2ccc(S(=O)(=O)[O-])cc21 [Compound 1, 3-(2-((E)-2-((E)-3-(2-((E)-1-(2-carboxyethyl)-3,3-dimethyl-5-sulfoindolin-2-ylidene)ethylidene)-2-chlorocyclohex-1-en-1-yl)vinyl)-3,3-dimethyl-5-sulfo-3H-indol-1-ium-1-yl)propanoate] | signals were higher in the liver and kidneys compared to other organs | – | –
CC1(C)C(/C=C/C2=C(Cl)C(=C/C=C3/N(CCC(=O)NC4O[C@@H](CO)[C@H](O)[C@@H](O)[C@H]4O)c4ccc(S(=O)(=O)O)cc4C3(C)C)/CCC2)=[N+](CCC(=O)NC2O[C@H](CO)[C@@H](O)[C@H](O)[C@@H]2O)c2ccc(S(=O)(=O)O)cc21 (stereo partly drawn) [Compound 2, 2-((E)-2-((E)-2-chloro-3-(2-((E)-3,3-dimethyl-1-(3-oxo-3-(((3R,4R,5R,6S)-3,4,5-trihydroxy-6-(hydroxymethyl)tetrahydro-2H-pyran-2-yl)amino)propyl)-5-sulfoindolin-2-ylidene)ethylidene)cyclohex-1-en-1-yl)vinyl)-3,3-dimethyl-1-(3-oxo-3-(((3S,4S,5S,6R)-3,4,5-trihydroxy-6-(hydroxymethyl)tetrahydro-2H-pyran-2-yl)amino)propyl)-5-sulfo-3H-indol-1-ium] | – | expressed fluorescence in cancer cells regardless of whether folate receptors were expressed | overall signals were identified in all organs
CC1(C)C(/C=C/C2=C(SCCOCCOCCNC(=O)CCC(NC(=O)c3ccc(NCc4cnc5nc(N)nc(O)c5n4)cc3)C(=O)O)C(=C/C=C3/N(CCC(=O)O)c4ccc(S(=O)(=O)O)cc4C3(C)C)/CCC2)=[N+](CCC(=O)O)c2ccc(S(=O)(=O)[O-])cc21 (stereo not shown) [Compound 4, 2-((E)-2-((E)-2-((1-(4-(((2-amino-4-oxo-1,4-dihydropteridin-7-yl)methyl)amino)phenyl)-3-carboxy-1,6-dioxo-10,13-dioxa-2,7-diazapentadecan-15-yl)thio)-3-(2-((E)-1-(2-carboxyethyl)-3,3-dimethyl-5-sulfoindolin-2-ylidene)ethylidene)cyclohex-1-en-1-yl)vinyl)-1-(2-carboxyethyl)-3,3-dimethyl-5-sulfo-3H-indol-1-ium] | signals were identified in the kidneys and small intestine | – | –

Reference: US20250275943A1, “COMPOSITION FOR CANCER DIAGNOSIS TARGETING TUMOR AND/OR TUMOR MICROENVIRONMENT AND USE THEREOF” (Korea University Research and Business Foundation, priority 2024, published 2025)
